# pIC50: −log10 of the molar value.
# Tested on: human PD-L1 promoter
# Test: Inhibitory effect of luciferase expression under control of PD-L1 promoter (A549/PD-L1luc luciferase assay, corrected by total protein)
# Format: cell-based
# Conditions: Homo sapiens; A549/PD-L1luc cells, 48±4 hours, RLU corrected by total protein amount; read-out: IC50 (50% inhibition value of luciferase expression)
# Description: A reporter vector, pPD-L1luc obtained by the insertion of a human PD-L1 promoter sequence (−2097 to 51) into the multiple cloning site of pGL-3 vector basic (Promega) expresses luciferase under the control of PD-L1 promoter when transfected into animal cells. The pPD-L1luc was transfected into a human non-small cell lung cancer-derived cell line A549 together with pPUR (Clontech) that expresses a puromycin resistance gene (puromycin-N-acetyl-transferase gene), and then cells expressing luciferase which could grow in a puromycin-supplemented medium were selected. The selected cells were named “A549/PD-L1luc cells” and used for luciferase assay as described below.
# A test compound was added into a culture liquid containing A549/PD-L1luc cells to observe the influence of the test compound on the amount of luciferase expressed in the cells. Here, it can be considered that when the test compound has a cell cytotoxicity or cell growth inhibitory effect, the total expression level of luciferase is recued due to a reduction in the number of living cells that depends on the concentration of the test compound, and thus the inhibitory effect of luciferase expression under the control of PD-L1 promoter of the test compound cannot be properly evaluated.
# A549/PD-L1luc cells were suspended in DMEM containing 10% fetal calf serum (FCS) and 1% penicillin/streptomycin (P/S) (hereinafter, referred to as “DMEM medium”) at 3×10^4 cells/mL to obtain a cell suspension, and the cell suspension was dispensed into each well of a 96-well plate in an amount of 100 μL. In order to perform the assay in triplicate, 3 wells were prepared for control group, and 3 wells were prepared for test compound-treated groups at each concentration. After the dispensation, the 96-well plate was incubated in a CO2 incubator (at 37° C. and 5% CO2) for 24±4 hours.
# Each compound of Examples 1 to 6 and Comparative Example 1 was dissolved in dimethylsulfoxide (DMSO) to obtain 50 mmol/L of a compound solution, and the compound solution was stored at −80° C. The compound solution was diluted with DMSO in 2-fold dilution series (usually, in the range of 0.04 mmol/L to 10 mmol/L) to prepare test compound solutions whose concentration varied by two fold for luciferase assay.
# Each solution of only DMSO (control) and the diluted test compound (sample) was dispensed into each well containing the cell suspension in an amount of 0.5 μL (200-fold dilution). The solution in each well was mixed with a vortex mixer, and then the 96-well plate was incubated in a CO2 incubator (at 37° C. and 5% CO2) for 48±4 hours. Luciferase Assay Substrate (hereinafter, referred to as “LAS”) supplied in Luciferase Assay Systems (Promega: Cat #E1500) was dissolved in Luciferase Assay Buffer (LAB) to prepare a luciferase reagent. 5× Cell Culture Lysis Reagent (hereinafter, referred to as “CCLR”) was diluted by 5 times with water to prepare 1×CCLR.
# After the incubation for 48±4 hours, the medium in each well was completely removed, and 1×CCLR was dispensed into each well in an amount of 50 μL. The plate was allowed to stand at room temperature for 30 minutes, and then 1×CCLR in each well was used as an assay sample for luciferase and total protein amount. The luciferase reagent (100 μL) was placed in a tube for chemiluminescence measurement assay, and the assay sample (20 μL) was added into the tube and mixed with the luciferase reagent to measure chemiluminescence (Relative Luminescence Intensity: RLU) using GloMax 20/20 (Promega).
# The above-mentioned assay sample (10 μL) was diluted by 10 times with water (90 μL). Each calibration curve sample was prepared by diluting the BSA solution with water as described in Table 1.
# BCA reagent A and BCA reagent B (50:1) supplied in a kit for protein assay were mixed to prepare Working Reagent. Each of the calibration curve samples (Vials I to VI) and the 10-fold diluted assay samples was dispensed into each well of a 96-well plate in an amount of 25 μL, respectively. […]
row,pIC50,Compound
1,5.89,"O=C(Nc1ccc(Oc2ccc(C(F)(F)F)cc2)cc1)C1CCCN(C(=O)c2ccc([N+](=O)[O-])cc2)C1 (stereo not shown) [Example 2, 1-(4-Nitrobenzoyl)-N-(4-(4-(trifluoromethyl)phenoxy)phenyl) piperidine-3-carboxamide]"
2,6.21,"COc1cc(C(=O)N2CCCC(C(=O)Nc3ccc(Oc4ccc(C(F)(F)F)cc4)cc3)C2)ccc1O (stereo not shown) [Example 3, 1-(4-Hydroxy-3-methoxybenzoyl)-N-(4-(4-(trifluoromethyl)phenoxy)phenyl)piperidine-3-carboxamide]"
3,6.21,"O=C(Nc1ccc(Oc2ccc(S(F)(F)(F)(F)F)cc2)cc1)C1CCCN(C(=O)c2ccc([N+](=O)[O-])cc2)C1 (stereo not shown) [Example 5, 1-(4-Nitrobenzoyl)-N-(4-(4-(pentafluorosulfanyl)phenoxy)phenyl)piperidine-3-carboxamide]"
4,6.21,"COc1cc(C(=O)N2CCCC(C(=O)Nc3ccc(Oc4ccc(S(F)(F)(F)(F)F)cc4)cc3)C2)ccc1O (stereo not shown) [Example 6, 1-(4-Hydroxy-3-methoxybenzoyl)-N-(4-(4-(pentafluorosulfanyl)phenoxy)phenyl)piperidine-3-carboxamide]"

# Source: US11591297B2, “Compound having PD-L1 expression-suppressing action” (TOHOKU UNIVERSITY, priority 2019, dated 2023)
